Data: patent US9187467B2, “2-phenyl benzothiazole linked imidazole compounds as potential anticancer agents and process for the preparation thereof” (Council of Scientific and Industrial Research, priority 2012, dated 2015)
Read-outs that look alike come from different tables or passages of the source. Each block holds one molecule with its values, some of them ahead of it.

Tests used:
K562 (Leukemia) cells = assay: Cell cycle distribution by flow cytometry; format: cell-based
Description: (§1) In order to investigate the mechanism underlying the anti-proliferative effect of the compounds the cell cycle distribution was analyzed in K562 (Leukemia) and MCF-7 (Breast carcinoma) cell lines by flow cytometry. Compounds CA-4, 21a, 21d, 4c, 6d, 6e, 6f, 7d, 7h and 7j have shown 1.72%, 14%, 12%, 14%, 12%, 14%, 14%, 16%, 16% &12% in K562 cells and 49.63%, 21%, 20%, 18%, 21%, 21%, 21%, 24%, 23% and 23% in MCF-7 cell line respectively. […] Thus compound 7d was considered for further studies (FIG. 1).

[1] = test system: MCF-7 (Breast carcinoma) cells; assay: Cell cycle distribution by flow cytometry (FACS); format: cell-based; conditions: MCF-7 cells, 2 μM, 24h
Description: FIG. 1 represents FACS analysis of cell cycle distribution of MCF-7 cells after treatment with compounds CA-4, 21a, 21d, 4c, 6d, 6e, 6f, 7d, 7h and 7j at 2 μM concentration for 24h and control cells are the cells treated with DMSO (0.25%).
as §1

caspase-9 = assay: Western blot, apoptosis proteins in MCF-7 cells; format: cell-based; conditions: 2 μM, 24h
Description: (§2) FIG. 3 represents effect of compound 7d and 7h on p21 and caspase-9. MCF-7 cells were treated with 2 μM concentration of compounds 7d and 7h for 24h. The cell lysates were collected and probed with anti-bodies against p21 and caspase-9. beta-actin was used as loading control. Con: Control (untreated).
(§3) Activation of tumor suppressor gene p21 was the important regulator of apoptotic pathway caused by various stimuli. In many instances the apoptotic cell death is mediated by caspases, thus the possible involvement of p21 and caspase protein and its role in apoptosis has been investigated. MCF-7 cells were treated with 7d, 7h (the effective compounds of cell cycle arrest) 21a, 21d and CA-4 at 2 μM concentration.

p21 = assay: Western blot, apoptosis proteins in MCF-7 cells; format: cell-based; conditions: 2 μM, 24h
Description: as §2, §3

CCRF-CEM = assay: SRB anticancer assay, leukemia; format: cell-based, human; conditions: 48 h
HL-60 (TB) = assay: SRB anticancer assay, leukemia; format: cell-based, human; conditions: HL-60 (TB), 48 h; read-out: GI50
K-562 = assay: SRB anticancer assay, leukemia; format: cell-based, human; conditions: K-562, 48 h
MOLT-4 = assay: SRB anticancer assay, leukemia; format: cell-based, human; conditions: MOLT-4, 48 h
SR = assay: SRB anticancer assay, leukemia; format: cell-based, human; conditions: 48 h
A549/ATCC = assay: SRB anticancer assay, non-small lung; format: cell-based, human; conditions: 48 h
EKVX = assay: SRB anticancer assay, non-small lung; format: cell-based, human; conditions: 48 h
NCI-H226 = assay: SRB anticancer assay, non-small lung; format: cell-based, human; conditions: NCI-H226, 48 h
NCI-H23 = assay: SRB anticancer assay, non-small lung; format: cell-based, human; conditions: NCI-H23, 48 h
NCI-H322M = assay: SRB anticancer assay, non-small lung; format: cell-based, human; conditions: 48 h
NCI-H460 = assay: SRB anticancer assay, non-small lung; format: cell-based, human; conditions: NCI-H460, 48 h
NCI-H522 = assay: SRB anticancer assay, non-small lung; format: cell-based, human; conditions: NCI-H522, 48 h
COLO 205 = assay: SRB anticancer assay, colon; format: cell-based, human; conditions: COLO 205, 48 h
HCC-2998 = assay: SRB anticancer assay, colon; format: cell-based, human; conditions: HCC-2998, 48 h
HCT-116 = assay: SRB anticancer assay, colon; format: cell-based, human; conditions: HCT-116, 48 h
HCT-15 = assay: SRB anticancer assay, colon; format: cell-based, human; conditions: HCT-15, 48 h
HT29 = assay: SRB anticancer assay, colon; format: cell-based, human; conditions: HT29, 48 h
SF-295 = assay: SRB anticancer assay, CNS; format: cell-based, human; conditions: SF-295, 48 h
SNB-75 = assay: SRB anticancer assay, CNS; format: cell-based, human; conditions: SNB-75, 48 h
U251 = assay: SRB anticancer assay, CNS; format: cell-based, human; conditions: U251, 48 h
IGROV1 = assay: SRB anticancer assay, ovarian; format: cell-based, human; conditions: IGROV1, 48 h
OVCAR-4 = assay: SRB anticancer assay, ovarian; format: cell-based, human; conditions: OVCAR-4, 48 h
A498 = assay: SRB anticancer assay, renal; format: cell-based, human; conditions: A498, 48 h
ACHN = assay: SRB anticancer assay, renal; format: cell-based, human; conditions: 48 h
SN12C = assay: SRB anticancer assay, renal; format: cell-based, human; conditions: 48 h
TK-10 = assay: SRB anticancer assay, renal; format: cell-based, human; conditions: TK-10, 48 h
UO-31 = assay: SRB anticancer assay, renal; format: cell-based, human; conditions: UO-31, 48 h
RXF 393 = assay: SRB anticancer assay, renal; format: cell-based, human; conditions: RXF 393, 48 h
PC-3 = assay: SRB anticancer assay, prostate; format: cell-based, human; conditions: PC-3, 48 h
DU-145 = assay: SRB anticancer assay, prostate; format: cell-based, human; conditions: DU-145, 48 h
MCF7 = assay: SRB anticancer assay, breast; format: cell-based, human; conditions: MCF7, 48 h
MDA-MB-231/ATCC = assay: SRB anticancer assay, breast; format: cell-based, human; conditions: 48 h, read-out: GI50
HS 578T = assay: SRB anticancer assay, breast; format: cell-based, human; conditions: 48 h
BT-549 = assay: SRB anticancer assay, breast; format: cell-based, human; conditions: BT-549, 48 h
LOX IMVI = assay: SRB anticancer assay, melanoma; format: cell-based, human; conditions: 48 h
M14 = assay: SRB anticancer assay, melanoma; format: cell-based, human; conditions: M14, 48 h
MDA-MB-435 = assay: SRB anticancer assay, melanoma; format: cell-based, human; conditions: MDA-MB-435, 48 h
SK-MEL-5 = assay: SRB anticancer assay, melanoma; format: cell-based, human; conditions: SK-MEL-5, 48 h
UACC-257 = assay: SRB anticancer assay, melanoma; format: cell-based, human; conditions: UACC-257, 48 h
UACC-62 = assay: SRB anticancer assay, melanoma; format: cell-based, human; conditions: UACC-62, 48 h
HOP-62 = assay: SRB anticancer assay, non-small lung; format: cell-based, human; conditions: HOP-62, 48 h
KM12 = assay: SRB anticancer assay, colon; format: cell-based, human; conditions: KM12, 48 h
SW-620 = assay: SRB anticancer assay, colon; format: cell-based, human; conditions: SW-620, 48 h
SF-268 = assay: SRB anticancer assay, CNS; format: cell-based, human; conditions: SF-268, 48 h
SNB-19 = assay: SRB anticancer assay, CNS; format: cell-based, human; conditions: SNB-19, 48 h
OVCAR-3 = assay: SRB anticancer assay, ovarian; format: cell-based, human; conditions: OVCAR-3, 48 h
OVCAR-5 = assay: SRB anticancer assay, ovarian; format: cell-based, human; conditions: OVCAR-5, 48 h
SK-OV-3 = assay: SRB anticancer assay, ovarian; format: cell-based, human; conditions: SK-OV-3, 48 h
786-0 = assay: SRB anticancer assay, renal; format: cell-based, human; conditions: 786-0, 48 h
CAKI-1 = assay: SRB anticancer assay, renal; format: cell-based, human; conditions: CAKI-1, 48 h
MALME-3M = assay: SRB anticancer assay, melanoma; format: cell-based, human; conditions: MALME-3M, 48 h
SK-MEL-28 = assay: SRB anticancer assay, melanoma; format: cell-based, human; conditions: SK-MEL-28, 48 h
[2] = test system: microtubule network of MCF-7 cells; assay: Effect on microtubule network; format: cell-based; conditions: 2 μM
Description: FIG. 2 represents effect of compound 7d, the effective compound on the microtubule network of MCF-7 cells untreated cells (Con), nocodazole (Noc) and 7d at 2 μM concentration. Microtubules and unassembled tubulin are shown in green and DNA was stained with nuclear dye DAPI (4,6-diamidino-2-phenylindole) is shown in blue colour.
Inhibition of tubulin is associated with G2/M cell cycle arrest by interrupting chromosome segregation and affecting mitotic spindle formation. […] It was considered of interest to understand the mechanism of anti-cancer activity of compound 7d with regard to interaction with microtubule system. MCF-7 breast cancer cells were treated with Nocodazole (Noc), 7d compounds at 2 μM concentration.

[3] = MDA-MB-231/ATCC (row head MDA-MB-)

Structure (SMILES): COc1ccc(/C=C\c2cc(OC)c(OC)c(OC)c2)cc1O [CA-4, Combretastatin A-4, reference compound]
cells in G2/M phase (K562 (Leukemia) cells): 1.72%
cells in G2/M phase [1]: 49.63%
caspase-9 protein (Western blot) (caspase-9): increase
p21 protein (Western blot) (p21): increase

GI50 (CCRF-CEM): 6.45 µM
GI50 (HL-60 (TB)): 8.71 µM
GI50 (K-562): 6.02 µM
GI50 (MOLT-4): 19.5 µM
GI50 (SR): 17.4 µM
GI50 (A549/ATCC): 28.8 µM
GI50 (EKVX): 34.7 µM
GI50 (NCI-H226): 0.35 µM
GI50 (NCI-H23): 58.9 µM
GI50 (NCI-H322M): 43.7 µM
GI50 (NCI-H460): 53.7 µM
GI50 (NCI-H522): 32.4 µM
GI50 (COLO 205): 51.3 µM
GI50 (HCC-2998): 0.25 µM
GI50 (HCT-116): 43.7 µM
GI50 (HCT-15): 47.9 µM
GI50 (HT29): 29.5 µM
GI50 (SF-295): 64.6 µM
GI50 (SNB-75): 33.1 µM
GI50 (U251): 66.1 µM
GI50 (IGROV1): 0.042 µM
GI50 (OVCAR-4): 0.54 µM
GI50 (A498): 42.7 µM
GI50 (ACHN): 51.3 µM
GI50 (SN12C): 50.1 µM
GI50 (TK-10): 0.18 µM
GI50 (UO-31): 6.45 µM
GI50 (RXF 393): 70.6 µM
GI50 (PC-3): 31.6 µM
GI50 (DU-145): 61.7 µM
GI50 (MCF7): 0.03 µM
GI50 (MDA-MB-231/ATCC; [3]): 66.1 µM
GI50 (HS 578T): 66.1 µM
GI50 (BT-549): 0.1 µM
GI50 (LOX IMVI): 37.2 µM
GI50 (M14): 57.6 µM
GI50 (MDA-MB-435): 79.5 µM
GI50 (SK-MEL-5): 21.9 µM
GI50 (UACC-257): 74.2 µM
GI50 (UACC-62): 70.8 µM
Structure (SMILES): Cc1cc(-c2nc3ccccc3s2)ccc1N [Compound 3a, reference compound]

GI50 (CCRF-CEM): 0.79 µM
GI50 (K-562): 36.3 µM
GI50 (MOLT-4): 26.9 µM
GI50 (SR): 21.9 µM
GI50 (A549/ATCC): 34.7 µM
GI50 (EKVX): 4.07 µM
GI50 (HOP-62): 30.9 µM
GI50 (NCI-H226): 60.3 µM
GI50 (NCI-H23): 12.6 µM
GI50 (NCI-H322M): 39.8 µM
GI50 (NCI-H460): 38.9 µM
GI50 (NCI-H522): 30.2 µM
GI50 (HCT-116): 43.7 µM
GI50 (HT29): 37.2 µM
GI50 (KM12): 57.6 µM
GI50 (SW-620): 66.1 µM
GI50 (SF-268): 35.5 µM
GI50 (SF-295): 31.6 µM
GI50 (SNB-19): 45.7 µM
GI50 (SNB-75): 15.8 µM
GI50 (U251): 31.6 µM
GI50 (IGROV1): 47.9 µM
GI50 (OVCAR-3): 38.9 µM
GI50 (OVCAR-4): 37.2 µM
GI50 (OVCAR-5): 83.2 µM
GI50 (SK-OV-3): 37.2 µM
GI50 (786-0): 29.5 µM
GI50 (A498): 41.7 µM
GI50 (ACHN): 53.7 µM
GI50 (CAKI-1): 34.7 µM
GI50 (SN12C): 38.9 µM
GI50 (TK-10): 77.6 µM
GI50 (UO-31): 21.4 µM
GI50 (RXF 393): 30.2 µM
GI50 (PC-3): 50.1 µM
GI50 (DU-145): 33.9 µM
GI50 (MCF7): 56.2 µM
GI50 (MDA-MB-231/ATCC; [3]): 44.7 µM
GI50 (MDA-MB-231/ATCC; listed as head printed 231/ATCC (second line of MDA-MB-231/ATCC)): 95.5 µM
GI50 (HS 578T): 14.1 µM
GI50 (BT-549): 22.4 µM
GI50 (MALME-3M): 83.2 µM
GI50 (M14): 33.1 µM
GI50 (MDA-MB-435): 89.1 µM
GI50 (SK-MEL-28): 64.6 µM
GI50 (SK-MEL-5): 52.5 µM
GI50 (UACC-62): 57.6 µM
Structure (SMILES): Cc1cc(-c2nc3ccc(O)cc3s2)ccc1N [Compound 3b, reference compound]

Structure (SMILES): Nc1ccc(-c2nc3ccc(F)cc3s2)cc1 [Compound 21a, 4-(6-fluorobenzo[d]thiazol-2-yl)benzenamine]
cells in G2/M phase (K562 (Leukemia) cells): 14%
cells in G2/M phase [1]: 21%
caspase-9 protein (Western blot) (caspase-9): increase
p21 protein (Western blot) (p21): increase

Structure (SMILES): COc1cc2nc(-c3ccc(N)cc3)sc2c(OC)c1OC [Compound 21d, 4-(5,6,7-trimethoxybenzo[d]thiazol-2-yl)benzenamine]
cells in G2/M phase (K562 (Leukemia) cells): 12%
cells in G2/M phase [1]: 20%
caspase-9 protein (Western blot) (caspase-9): increase
p21 protein (Western blot) (p21): increase

Structure (SMILES): COC(=O)Nc1nc2ccc(C(=O)c3cccs3)cc2[nH]1 [Nocodazole, reference compound]
microtubulin organization [2]: disrupted microtubulin organization
